# Values of other authors in patent publication US20250034331A1, “POLYESTER URETHANE BIORESORBABLE ELASTOMERS WITH MICROSTRUCTURES FOR TUNABLE DRUG RELEASE AND TUNABLE DEGRADATION” (SOLESIS, INC., priority 2023, published 2025).
# What was measured:
# [1] = humans
time of excretion [1],solubility in PBS,SMILES
≤ 10 h,–,"NCCCCCCN [HDA, hexamethylene diamine]"
–,about 75 μg/mL,C[C@@H]1C[C@H]2[C@@H]3CCC4=CC(=O)C=C[C@]4(C)[C@@]3(F)[C@@H](O)C[C@]2(C)[C@@]1(O)C(=O)CO [dexamethasone]
